# Experiment: Chemiluminescent antioxidant capacity in vitro (luminol/H2O2/p-iodophenol, peroxidase)
# Type: biochemical
# Details: for Time (min.) necessary for reaching 50% of the control light emission: water control; for light emission: concentration not given; for antioxidant activity in vitro compared with Trolox: same concentration, extinguishing time of the light emission
# Description: The antioxidant capacity “in vitro” of FPA and FPB compounds, extracted from Ajuga reptans, and “in vivo” of the serum of rats treated with these substances, was evaluated by means of a chemiluminescent method and compared with that of an analogous hydrosoluble product of vitamin E.
# The chemiluminescent reaction of luminol was used, which is oxidized by hydrogen peroxide (H2O2), generating unstable radicals which degenerate to their basic state emitting light. This reaction is catalyzed by peroxidase enzyme. A signal potentiator is also present in the system: p-iodophenol which increases the light emission, producing in turn radicals which degenerate emitting photons.
# The presence of substances with an antioxidant activity interrupts the chain of radicalic reactions, temporarily preventing light emission. The time and extinguishing degree of the emission of photons are in relation to the antioxidant capacity and concentration of the substances being tested.
# ECL reagent (luminol/H2O2/p-iodophenol) of Amersham International (Amersham, UK).
# […] (type VI-A, 1100 U/mg) of Sigma (St. Louis, Mo., U.S.A.).
# Samples relating to FPA and FPB molecules extracted from Ajuga reptans, were prepared in aqueous solution at different concentrations (5.0, 2.0, 1.0 and 0.5 μM) and compared with solutions, at equal concentrations, of Trolox, an analogous hydrosoluble product of tocopherol. The serum of rats treated with raw extract of Ajuga reptans by intravenous administration at a dosage of 200 mg/kg were diluted 1:20 with water and compared with the serum of a non-treated rat.
# Distilled water was used as control.
# The dosage was effected in black polystyrene cylinders (Dynatech Laboratories, Chantilly, Va., U.S.A.). The chemiluminescent mixture was prepared by adding 100 μl of a dilution 1:10,000 v/v (0.11 U/ml) of a stock solution of peroxidase (1 mg/ml in a Tris-HCl 0.1 M buffer, pH 8.6) to 5 ml of ECL reagent. The various dilutions of the samples were distributed in quadruple into the cylinders (50 μl/cylinder) and 100 μl of chemiluminescent mixture were added to each. The light emission was measured immediately using a Luminograph LB980 (EG&G Berthold, Bad Wildbad, Germany) and the chemiluminescent reaction kinetics was monitored for about 60 minutes. The light emission was measured in photons/sec/pixel and the data obtained are indicated in Table 1 and the graph of FIG. 1 enclosed, compared with the control (water) and references (Trolox or serum of a non-treated rat).
SMILES,Time (min.) necessary for reaching 50% of the control light emission (Concentration 0.5 μM) [min],Time (min.) necessary for reaching 50% of the control light emission (Concentration 1 μM) [min],Time (min.) necessary for reaching 50% of the control light emission (Concentration 2 μM) [min],Time (min.) necessary for reaching 50% of the control light emission (Concentration 5 μM) [min],light emission (Time 0 (min)) [photons/sec/pixel],light emission (Time 2 (min)) [photons/sec/pixel],light emission (Time 5 (min)) [photons/sec/pixel],light emission (Time 7 (min)) [photons/sec/pixel],light emission (Time 9 (min)) [photons/sec/pixel],light emission (Time 11 (min)) [photons/sec/pixel],light emission (Time 14 (min)) [photons/sec/pixel],light emission (Time 17 (min)) [photons/sec/pixel],light emission (Time 19 (min)) [photons/sec/pixel],light emission (Time 21 (min)) [photons/sec/pixel],light emission (Time 23 (min)) [photons/sec/pixel],light emission (Time 26 (min)) [photons/sec/pixel],light emission (Time 28 (min)) [photons/sec/pixel],light emission (Time 30 (min)) [photons/sec/pixel],light emission (Time 32 (min)) [photons/sec/pixel],light emission (Time 34 (min)) [photons/sec/pixel],other results
"Cc1c(C)c2c(c(C)c1O)CCC(C)(C(=O)O)O2 (racemic) [Trolox, (+/−)-6-hydroxy-2,5,7,8-tetramethylchroman-2-carbonsaeure, reference compound]",1,3,6,15,31.8,2.9,7.8,35.5,46.9,49.3,50.4,49.7,49.2,48.3,47.3,46.2,45.1,43.7,42.1,40.8,light emission (Time 37 (min)): 39.3 photons/sec/pixel; light emission (Time 41 (min)): 35.3 photons/sec/pixel; light emission (Time 44 (min)): 35 photons/sec/pixel; light emission (Time 46 (min)): 32.8 photons/sec/pixel; light emission (Time 49 (min)): 31.1 photons/sec/pixel; light emission (Time 51 (min)): 29.6 photons/sec/pixel; light emission (Time 53 (min)): 28.6 photons/sec/pixel; light emission (Time 56 (min)): 26.2 photons/sec/pixel; light emission (Time 58 (min)): 26.8 photons/sec/pixel; light emission (Time 61 (min)): 23.9 photons/sec/pixel
"C[C@@H]1O[C@@H](O[C@@H]2[C@@H](O)[C@H](OCCc3ccc(O)c(O)c3)O[C@H](CO)[C@H]2OC(=O)/C=C/c2ccc(O)c(O)c2)[C@H](O[C@@H]2O[C@H](CO)[C@H](O)[C@H](O)[C@H]2O)[C@H](O)[C@H]1O [FPA, teupolioside]",13,35,>60,>60,31.8,1.3,1.4,1,0.9,0.8,0.8,0.7,0.6,0.6,0.6,0.5,0.6,0.5,0.6,1.1,"light emission (Time 37 (min)): 0.8 photons/sec/pixel; light emission (Time 41 (min)): 0.7 photons/sec/pixel; light emission (Time 44 (min)): 0.9 photons/sec/pixel; light emission (Time 46 (min)): 0.8 photons/sec/pixel; light emission (Time 49 (min)): 0.8 photons/sec/pixel; light emission (Time 51 (min)): 0.8 photons/sec/pixel; light emission (Time 53 (min)): 0.8 photons/sec/pixel; light emission (Time 56 (min)): 1.1 photons/sec/pixel; light emission (Time 58 (min)): 0.8 photons/sec/pixel; light emission (Time 61 (min)): 1.1 photons/sec/pixel; activity relative to that of Trolox (dosage of 1 μM): ~12 times; antioxidant activity of FPA compared with FPB (in vitro): slightly higher activity with respect to the FPB compound; antioxidant activity in vitro compared with Trolox: extremely high antioxidant activity in vitro, significantly higher than that of Trolox"
COc1cc(C=CC(=O)OC2C(CO)OC(OCCc3ccc(O)c(O)c3)C(O)C2OC2OC(C)C(O)C(O)C2OC2OC(CO)C(O)C(O)C2O)ccc1O (stereo not shown) [FPB],6,29,>60,>60,31.8,0.3,0.2,0,0,0,0,0,0.1,0.4,1.1,1.8,2.6,3.5,5.1,7,"light emission (Time 37 (min)): 6.6 photons/sec/pixel; light emission (Time 41 (min)): 7.6 photons/sec/pixel; light emission (Time 44 (min)): 8.6 photons/sec/pixel; light emission (Time 46 (min)): 8.9 photons/sec/pixel; light emission (Time 49 (min)): 9.6 photons/sec/pixel; light emission (Time 51 (min)): 10.3 photons/sec/pixel; light emission (Time 53 (min)): 10.9 photons/sec/pixel; light emission (Time 56 (min)): 11.4 photons/sec/pixel; light emission (Time 58 (min)): 12.1 photons/sec/pixel; light emission (Time 61 (min)): 12.7 photons/sec/pixel; antioxidant activity in vitro compared with Trolox: extremely high antioxidant activity in vitro, significantly higher than that of Trolox"

# — US20010024809A1, “Compounds with an antioxidant activity, compositions useful as food integrators containing them and process for their preparation” (priority 2000, published 2001)
